Results: the NIST ThermoML archive (doi:10.1016/j.fluid.2004.10.028)
± gives the expanded uncertainty stated by the source.

Conditions: Liquid, Capillary tube (Ostwald / Ubbelohde) method

O [water]
viscosity [mPa·s]
Conditions | 296.7 K | 338.3 K | 372.4 K | 413.62 K | 469.4 K | 500.22 K | 544.23 K | 573.7 K
5000 kPa | 0.918 ± 0.028 | 0.431 ± 0.013 | 0.286 ± 0.009 | 0.196 ± 0.006 | – | – | – | –
10000 kPa | 0.917 ± 0.028 | 0.434 ± 0.013 | 0.287 ± 0.009 | 0.197 ± 0.006 | 0.138 ± 0.004 | 0.12 ± 0.004 | 0.0983 ± 0.0032 | 0.086 ± 0.0028
20000 kPa | 0.915 ± 0.028 | 0.435 ± 0.013 | 0.288 ± 0.009 | 0.201 ± 0.006 | 0.141 ± 0.004 | 0.123 ± 0.004 | 0.1012 ± 0.0033 | 0.0891 ± 0.0029
40000 kPa | 0.914 ± 0.028 | 0.44 ± 0.014 | 0.293 ± 0.009 | 0.205 ± 0.006 | 0.145 ± 0.005 | 0.127 ± 0.004 | 0.106 ± 0.0034 | 0.095 ± 0.0031
